One substance from EP0151577B1 (priority 1983, dated 1984) can be followed below.

Data set [1] deals with souris. As to the kind of experiment: Motor activity (Photactametre). Type of data set: in vivo. The conditions noted are these: 100 mg/kg i.p., compared with 5HTP used as control.
For data set [2], the system named is souris. Put plainly: Vertical pole climbing test. The data set is classed as in vivo. The conditions noted are these: 100 mg/kg i.p., 15 min after administration.
The test system of data set [3] is 5-HT (dans tout le cerveau). As to the kind of experiment: Amount of serotonin (5-HT) in whole brain, spectrophotofluorometric. Type of data set: in vivo, souris. Particulars: 160 mg/kg i.p., 15 min.; Solution Saline 60,0; mean of 4 souris. An excerpt: Les quantités de sérotonine ont été estimees par une méthode spectrophotofluorométrique, telle que décrite par Solomon et al. Biochem. Pharmacology 14, 831 (1965). Les résultats de ces essais sont rassemblés dans le Tableau 10 ci-après.
• * Chaque valeur représente la moyenne de quatre animaux d'experience (souris) • ** La concentration de 5-HT est exprimée par gramme de tissu frais (cerveau).

The test system of data set [4] is souris. Put plainly: Acute toxicity, DL50 i.p. Type of data set: in vivo. The protocol: La valeur DL50 i.p. pour tous ces derives a été trouvée voisine de 800 mg/kg et la valeur DL 50 i.v. est supérieure a 5 g/kg.
Data set [5] has as its system souris. Put plainly: Anticonvulsant activity, pentylenetetrazol. The data set is classed as in vivo. Particulars: 100 mg/kg i.p., 15 min after administration.
Data set [6] relates to souris. Put plainly: Anticonvulsant activity, MES. Type of data set: in vivo. Particulars: 100 mg/kg i.p., 15 min after administration, Tableau 3. An excerpt: Activite anticonvulsivante (MES): % de protection Temps de sommeil au pentobarbital: WYATT, R.J., ZARKONE, V. […], K., DEMENT, W.C., SMYDER, F. and SJOERDSMA, A., Effects of 5-Hydroxytryptophan on the sleep of normal human subjects. Electroencephaly and Clinical Neurophysiology 30, 5051971.

Data set [7] relates to souris. As to the kind of experiment: Pentobarbital sleeping time. Type of data set: in vivo. The conditions noted are these: 100 mg/kg i.p., 15 min after administration, Tableau 3.
Procedure: Les mesures ont été faites a 15, 30 et 60 minutes après I'administration par voie intrapéritonéale (i.p.) a des souris.
Data set [8] has as its system souris. As to the kind of experiment: General pharmacological profile: respiratory rate. The data set is classed as in vivo. The conditions noted are these: 100 mg/kg i.p., 15 min after administration, Tableau 3. An excerpt: (§1) Activite motrice spontanée: MODIGH, K., Central and peripheral effects of 5-hydroxytryptophan on motor activity in mice. Psychopharmacologia (Berlin), 23, 48, 1972. Cadence respiratoire: […], S., and VALZELLI, L. Serotonin and cardiovascular system, Chapter 9, in "Serotonin", Elsevier Publ. Co. Amsterdam 1965.
COHEN, Y. and BLANCHARD, P. Influence de la chelation du calcium sur les effets tensionnels de la sérotonine chez le chien. J. Physiol., 52, 569,1960.
BRAUNWALD, E. Control of myocardial oxygen consumption: Physiologic and clinical considerations. Am. J. Cardiol., 27 (4), 416,1971.

In data set [9] the test system is souris. As to the kind of experiment: General pharmacological profile: spontaneous motor activity. The data set is classed as in vivo. Particulars: 100 mg/kg i.p., 15 min after administration, Tableau 3.
Source text: as §1

For data set [10], the system named is souris. As to the kind of experiment: Morphine test (antagonism). The data set is classed as in vivo. Particulars: 100 mg/kg i.p., 15 min after administration.

On to “désoxyribulo-5-hydroxytryptophane [Désoxy ribulo-5HTP]”, for which the “Activité motrice (Photactametre)” value in data set [1] is listed as “Augmentation pendant les 40 premières min. et ensuite diminution”. In [2], the “Essai de grimpé sur un baton vertical” value is recorded as “Sans effet”. For the same substance, the “Quantités de 5-HT (dans tout le cerveau)” value in data set [3] is on record as 92,5. In addition, the “DL50 (ip)en toxicité aigue” value in [4] was over 800 mg/kg. Also, the “Activité anticonvulsivante 2.Pentylènetetrazol” value in [5] worked out at 0%. Moreover, the “Activité anticonvulsivante 1. MES” value in [6] was 20%. Further, in data set [7], the “Temps de sommeil au pentobarbital % du témoin (Témoin à 100)” value is recorded as 309,2 % du témoin. The Cadence respiratoire result in [8] was “sans effet”. Moreover, the “Activité motrice spontanée” value in [9] is listed as “sans effet”. The “Essai à la morphine” value in data set [10] is reported as “Négatif (pas d'antagonisme)”.
